Data on nine compounds can be found in ChEMBL document CHEMBL1201862, “PubChem BioAssay data set” (2004).

Assay [1] can be described thus: luciferase reporter signal reduction – luminescence, H4-C neuroglioblastoma cells, dose response (AID 2458).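 Further: H4 neuroglioblastoma cells stably carrying a luciferase reporter gene fusion.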 The format is functional, cell-based. A general note: A reporter such as luciferase makes a cellular process visible.
Assay [2] in a line: Luminescence Cell-Based Dose Response HTS to Identify Inhibitors of 5'UTR Stem-Loop Driven Prion Protein mRNA Translation in H4 Neuroglioblastoma Cells. [Related pubchem assays: 1827 (Project Summary), 1813 (Primary HTS)]. Type of assay: functional.
A further assay in a line: cells. Type of assay: functional, cell-based.
A short description of assay [3]: alpha-synuclein stem-loop translation blockers – luminescence, H4 neuroglioblastoma cells, dose confirmation, confirmation (AID 2454).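 Further: H4 neuroglioblastoma cells carrying an alpha-synuclein 5'UTR luciferase reporter; potency for inhibition of the luciferase signal.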 The format is functional, cell-based.
Assay [4] is described as follows: luciferase reporter signal suppression in cells – H4 neuroglioma cells, luminescence, dose response (AID 1990). The format is functional, cell-based.
Assay [5] in a line: alpha-synuclein stem-loop luciferase translation blockers – H4 neuroglioma cells, luminescence, confirmation (AID 1988). The format is functional, cell-based.
A short description of assay [6]: A Cell Based Secondary Assay To Explore Cytotoxicity of Compounds that Sensitize Mycobacterium Tuberculosis to Beta-Lactam Antibiotics. The format is functional.
The target of assay [7] is T1, Polyadenylate-binding protein 1 (Homo sapiens, UniProt P11940). Kind of assay: MLLE binding blockers, Cy5 peptide tracer – biochemical, fluorescence polarization, Cy5-PAM2 peptide, secondary, miRNA deadenylation inhibitor project, dose response (AID 602260). Type of assay: functional. As to conditions: read-out: IC50_Mean. A general note: Fluorescence polarisation rises when a labelled molecule tumbles more slowly, as on binding a larger partner.

A short description of assay [8]: viability of HCT116 lacking mutant beta-catenin – cell-based, human colon tumor, dose response (AID 1045).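 Further: HCT116 colon tumor cells with beta catenin knocked out; cells exposed to compound for 60 hours.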 Type of assay: functional.
Assay [9] concerns the target DNA dC->dU-editing enzyme APOBEC-3G (Homo sapiens, UniProt Q9HC16). Briefly: Dose Response confirmation of small molecule APOBEC3G DNA Deaminase Inhibitors via a fluorescence-based single-stranded DNA deaminase assay. [Related pubchem assays (depositor defined):AID493012, AID493028]. Type of assay: functional.
A short description of assay [10]: viability of PTEN-deleted HCT116 cells – cell-based, HCT116 PTEN knockout, dose response (AID 1047).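 Further: HCT116 colon tumor cells with PTEN knocked out; cells exposed to compound for 60 hours before readout; potency for loss of cell viability measured by luminescence.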 The format is functional.
Assay [11] addresses T1, Polyadenylate-binding protein 1. Briefly: MLLE domain peptide-binding blockers, IC50 – biochemical, fluorescence polarization, FITC-PAM2 peptide, dose response (AID 602259). The format is functional. The settings on record: read-out: IC50_Mean.
Assay [12] in a line: blockade of melanocortin 4 receptor signaling – cell-based, plate reader, cherry pick, counter-screen for LGR2 antagonist project, dose response (AID 743444).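 Further: transfected HEK 293 cells stimulated with alpha-MSH peptide; potency of inhibitors of the alpha-MSH evoked signal.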 The format is functional. Background: The purpose of a counterscreen is to sort out artefacts and off-target activity.
Assay [13] can be described thus: toxicity toward HepG2 liver cells – cell-based, plate reader, cherry-pick, antagonist series, cytotoxicity control, dose response (AID 743416). Type of assay: functional.
The nature of assay [14]: A549 cell cytotoxicity, dose response, cytotoxicity control, plate reader, cherry-pick, antagonist series (AID 743412). Type of assay: functional, cell-based.
Assay [15] can be described thus: blockers of bursicon-stimulated LGR2 cAMP reporter – cell-based, HEK293, CRE-luciferase reporter, cherry pick, set 2, dose response (AID 743343).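 Further: transfected cells were stimulated with diluted bursicon conditioned medium after compound addition.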 Type of assay: functional.
Assay [16] concerns the target Cyclin-dependent kinase 5/CDK5 activator 1 (Homo sapiens, UniProt Q00535). Kind of assay: blockade of human CDK5 activity – biochemical, cherry-picked samples, set 2, dose response (AID 504545).
The target of a further assay is T2, Protein RecA (Mycobacterium tuberculosis, UniProt P9WHJ3).
T2 sequence (P9WHJ3 whole entry): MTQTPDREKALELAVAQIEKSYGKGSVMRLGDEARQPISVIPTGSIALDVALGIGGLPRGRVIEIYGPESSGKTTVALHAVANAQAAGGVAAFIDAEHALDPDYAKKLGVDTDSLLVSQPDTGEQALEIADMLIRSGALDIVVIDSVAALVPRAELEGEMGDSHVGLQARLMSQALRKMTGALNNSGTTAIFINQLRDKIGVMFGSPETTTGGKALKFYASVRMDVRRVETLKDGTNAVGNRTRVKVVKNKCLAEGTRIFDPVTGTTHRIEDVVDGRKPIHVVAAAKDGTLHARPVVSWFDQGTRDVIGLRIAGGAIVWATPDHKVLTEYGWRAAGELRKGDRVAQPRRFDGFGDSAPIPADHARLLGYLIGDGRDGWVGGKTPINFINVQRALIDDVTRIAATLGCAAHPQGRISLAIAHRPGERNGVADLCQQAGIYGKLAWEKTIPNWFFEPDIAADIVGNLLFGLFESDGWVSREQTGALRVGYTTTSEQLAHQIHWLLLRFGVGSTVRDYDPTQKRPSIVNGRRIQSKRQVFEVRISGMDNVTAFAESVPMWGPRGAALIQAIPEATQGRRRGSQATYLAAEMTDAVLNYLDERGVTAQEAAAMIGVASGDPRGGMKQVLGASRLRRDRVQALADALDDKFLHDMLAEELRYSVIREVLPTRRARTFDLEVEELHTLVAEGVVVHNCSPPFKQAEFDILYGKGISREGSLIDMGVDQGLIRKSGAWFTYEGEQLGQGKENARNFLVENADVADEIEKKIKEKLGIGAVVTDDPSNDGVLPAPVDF
Kind of assay: Fluorescence Cell-Free Homogeneous Dose Retest to Identify Inhibitors of RecA-Intein Splicing Activity. [Related pubchem assays (depositor defined):AID2097, AID2223, AID489010, AID492950]. Type of assay: functional.

Assay [17] has as its system Streptococcus sp. 'group A'. Briefly: Streptococcus pyogenes SK(-)GAS viability under kanamycin – luminescence, BacTiterGlo, confirmation, counter-screen for streptokinase expression inhibitor project, dose response (AID 1900). The format is functional, organism-based.
Another assay relates to Streptococcus. Briefly: GAS UMAA2166 growth inhibition – luminescence, BacTiterGlo, counter-screen for streptokinase expression inhibitor project, dose response (AID 1915).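 Further: potency for reduction of bacterial viability or growth.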 The format is functional, organism-based.
The next assay addresses T3, Streptokinase A (Streptococcus pyogenes serotype M1, UniProt P10520).
T3 sequence (P10520 whole entry): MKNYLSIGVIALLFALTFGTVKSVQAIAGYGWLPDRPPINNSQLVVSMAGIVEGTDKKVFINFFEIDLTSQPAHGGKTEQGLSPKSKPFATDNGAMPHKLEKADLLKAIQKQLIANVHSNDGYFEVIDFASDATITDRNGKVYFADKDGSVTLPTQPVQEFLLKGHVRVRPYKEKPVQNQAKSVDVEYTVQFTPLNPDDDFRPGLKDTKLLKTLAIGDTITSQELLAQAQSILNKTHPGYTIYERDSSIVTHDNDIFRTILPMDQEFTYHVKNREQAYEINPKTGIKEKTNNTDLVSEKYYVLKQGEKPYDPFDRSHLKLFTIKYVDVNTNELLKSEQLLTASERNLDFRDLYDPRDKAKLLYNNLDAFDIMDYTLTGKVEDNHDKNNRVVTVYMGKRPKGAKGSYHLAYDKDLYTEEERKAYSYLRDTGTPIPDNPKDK
Briefly: viability-normalized secreted streptokinase activity reduction – plasminogen activation absorbance, OD405, dose response (AID 1914).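 Further: secreted streptokinase activity via plasminogen activation per viability signal from cell pellet.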 The format is functional, Streptococcus pyogenes M1 GAS.

Another assay has as its target T4, Cytochrome P450 1A2 (Homo sapiens, UniProt P05177).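 Further: PubChem cytochrome P450 panel assay, CYP1A2 panel member.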
T4 sequence (P05177 whole entry): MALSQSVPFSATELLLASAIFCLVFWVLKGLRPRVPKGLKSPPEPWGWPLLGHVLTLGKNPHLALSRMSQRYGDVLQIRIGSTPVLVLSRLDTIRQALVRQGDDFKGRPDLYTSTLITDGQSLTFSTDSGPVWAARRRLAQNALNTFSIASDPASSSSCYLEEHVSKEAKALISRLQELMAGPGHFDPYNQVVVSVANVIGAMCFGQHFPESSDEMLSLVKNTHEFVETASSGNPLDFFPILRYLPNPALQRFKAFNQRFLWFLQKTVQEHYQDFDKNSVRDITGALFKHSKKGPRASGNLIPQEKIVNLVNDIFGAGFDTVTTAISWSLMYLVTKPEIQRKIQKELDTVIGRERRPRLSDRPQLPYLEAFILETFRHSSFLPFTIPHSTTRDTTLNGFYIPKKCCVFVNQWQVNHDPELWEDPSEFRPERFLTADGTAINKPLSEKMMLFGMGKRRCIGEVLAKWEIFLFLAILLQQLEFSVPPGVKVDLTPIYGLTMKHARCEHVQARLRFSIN

In the next assay the target is Estrogen receptor beta (Homo sapiens, UniProt Q92731).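 Further: recombinant ER-beta bound to coactivator SRC1 peptide in presence of estradiol agonist; inhibitors block coactivator peptide binding and lower the FRET signal.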
Assay [18] can be described thus: blockers of HIV-1 envelope-mediated cell-cell fusion – cherry-pick, dose response (AID 652057). The format is functional, cell-based.
A short description of assay [19]: blockers of HIV-1 ZM109 envelope-driven cell-cell fusion – HeLa effector, CEM target cells, luciferase, cherry-pick, dose response (AID 652058).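 Further: luciferase signal from HIV-1 Env mediated cell-cell fusion of effector and target cells.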 The format is functional, cell-based.
The nature of assay [20]: off-target signal loss in HeLa-CEM21 co-culture – HeLa F-luc CTL cells, cherry-picked, counter-screen for HIV-1 Env fusion inhibitor project, dose response (AID 652040).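 Further: potency for signal decrease marking cytotoxic or nonspecific inhibition.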 Type of assay: functional, cell-based.
The nature of assay [21]: HIV-1 AD8 envelope cell-cell fusion blockers – cherry-pick, dose response (AID 652062).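 Further: luciferase signal from cell-cell fusion driven by HIV-1 clade B AD8 Env; potency is for inhibitors of fusion seen as a drop in luminescence.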 Type of assay: functional, cell-based.

The structures appear in SMILES notation. Calls of active or inactive are those of the source.

T1 sequence (P11940 whole entry): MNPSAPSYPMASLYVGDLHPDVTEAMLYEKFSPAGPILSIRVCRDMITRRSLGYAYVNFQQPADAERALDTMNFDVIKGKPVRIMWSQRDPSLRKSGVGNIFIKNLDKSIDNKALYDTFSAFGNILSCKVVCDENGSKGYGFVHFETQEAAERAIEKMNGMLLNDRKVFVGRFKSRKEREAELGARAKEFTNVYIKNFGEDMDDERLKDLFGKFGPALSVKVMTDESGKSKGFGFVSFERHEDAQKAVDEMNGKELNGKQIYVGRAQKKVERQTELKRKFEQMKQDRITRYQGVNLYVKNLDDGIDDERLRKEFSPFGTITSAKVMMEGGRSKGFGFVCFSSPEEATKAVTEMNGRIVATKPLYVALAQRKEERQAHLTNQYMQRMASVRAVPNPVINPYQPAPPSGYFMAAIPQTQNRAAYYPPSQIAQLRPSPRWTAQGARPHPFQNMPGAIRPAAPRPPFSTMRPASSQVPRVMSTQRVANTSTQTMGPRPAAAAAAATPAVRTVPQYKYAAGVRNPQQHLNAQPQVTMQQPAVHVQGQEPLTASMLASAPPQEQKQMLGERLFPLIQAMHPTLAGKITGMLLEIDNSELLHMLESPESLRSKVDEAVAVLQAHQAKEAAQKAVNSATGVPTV
Estrogen receptor beta, sequence (Q92731 whole entry, the tested form may be a part): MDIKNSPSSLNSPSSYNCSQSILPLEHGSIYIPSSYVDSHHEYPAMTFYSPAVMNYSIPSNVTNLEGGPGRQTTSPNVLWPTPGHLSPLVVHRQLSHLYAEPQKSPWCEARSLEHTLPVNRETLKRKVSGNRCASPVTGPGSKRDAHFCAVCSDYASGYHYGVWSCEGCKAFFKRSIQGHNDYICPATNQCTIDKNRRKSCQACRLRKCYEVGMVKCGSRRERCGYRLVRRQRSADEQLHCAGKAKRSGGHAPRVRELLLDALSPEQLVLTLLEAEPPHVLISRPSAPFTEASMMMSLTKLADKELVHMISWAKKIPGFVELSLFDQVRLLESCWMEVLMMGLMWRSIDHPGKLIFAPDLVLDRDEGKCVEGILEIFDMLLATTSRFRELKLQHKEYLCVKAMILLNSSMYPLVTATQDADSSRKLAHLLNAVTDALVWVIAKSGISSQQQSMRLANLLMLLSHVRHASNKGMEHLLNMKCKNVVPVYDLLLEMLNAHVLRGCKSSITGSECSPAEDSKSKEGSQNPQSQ
Cyclin-dependent kinase 5/CDK5 activator 1, sequence (Q00535 whole entry): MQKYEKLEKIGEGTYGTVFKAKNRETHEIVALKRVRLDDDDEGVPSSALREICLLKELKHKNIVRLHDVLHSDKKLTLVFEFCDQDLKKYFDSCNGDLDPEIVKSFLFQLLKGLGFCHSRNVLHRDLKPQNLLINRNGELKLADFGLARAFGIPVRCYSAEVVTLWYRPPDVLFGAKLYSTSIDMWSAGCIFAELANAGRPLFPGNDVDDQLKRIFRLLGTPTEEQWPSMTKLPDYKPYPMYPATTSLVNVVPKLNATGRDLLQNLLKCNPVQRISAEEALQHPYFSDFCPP
Cyclin-dependent kinase 5/CDK5 activator 1, sequence (Q15078 whole entry, further chain): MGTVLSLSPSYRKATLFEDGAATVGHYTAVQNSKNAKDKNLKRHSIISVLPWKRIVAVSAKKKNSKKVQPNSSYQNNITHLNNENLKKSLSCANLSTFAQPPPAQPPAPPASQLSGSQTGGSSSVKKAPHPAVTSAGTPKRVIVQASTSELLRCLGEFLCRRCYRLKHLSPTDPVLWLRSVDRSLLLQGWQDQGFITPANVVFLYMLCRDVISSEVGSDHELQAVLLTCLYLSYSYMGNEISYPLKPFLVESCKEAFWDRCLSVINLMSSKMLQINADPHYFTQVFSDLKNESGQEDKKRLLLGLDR
DNA dC->dU-editing enzyme APOBEC-3G, sequence (Q9HC16 whole entry): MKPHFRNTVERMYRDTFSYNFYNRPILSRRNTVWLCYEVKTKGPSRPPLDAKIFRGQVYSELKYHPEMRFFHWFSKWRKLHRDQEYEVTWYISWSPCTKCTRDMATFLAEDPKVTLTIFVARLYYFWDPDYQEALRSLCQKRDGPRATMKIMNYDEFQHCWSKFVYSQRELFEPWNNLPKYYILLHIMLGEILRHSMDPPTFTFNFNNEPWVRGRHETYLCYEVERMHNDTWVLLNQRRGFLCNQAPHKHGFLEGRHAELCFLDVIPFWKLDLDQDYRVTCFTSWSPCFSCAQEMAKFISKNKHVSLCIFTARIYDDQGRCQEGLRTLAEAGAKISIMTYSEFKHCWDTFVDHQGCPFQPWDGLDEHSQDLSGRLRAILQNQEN

`C/C=C(\C)C(=O)OC1C(C)=C2C(C1OC(=O)CCCCC)C(C)(OC(C)=O)CC(OC(=O)CCC)C1(O)C2OC(=O)C1(C)O` (stereo not given): the EC50 in assay [1] was 0.051 µM (active); in [2], < 0.1 µM (active); in “cells” it was 0.228 µM (active); in assay [3] it was 0.047 µM (active); in assay [4], < 0.1 µM (active); in assay [5], < 0.1 µM (active).

For the compound `CC(C)(C)Nc1nc(Nc2ccc([N+](=O)[O-])cc2)nc(NC(C)(C)C)n1`, in [6], the CC50 is > 40 µM (active). In addition, the EC50 in [2], in assay [4] and in assay [5] was > 120 µM (not active) each time.

For `CCCOC(=O)c1c(NC(=O)C2CCCO2)sc(C(=O)OC)c1C` (stereo not given), the values for the IC50 in assay [7], in [9] and in assay [11] were > 66 µM (inactive), 69.5 µM (active) and > 66 µM (inactive), respectively. Also, the EC50 in [8] is 28.2 µM (active); in assay [10], 28.7 µM (active).

Take `Cc1ccc(NC(=O)c2ccc3c(c2)OCCO3)cc1C`: the AC50 in [12] was 7.61 µM (active); in assay [13], > 52 µM (inactive); in [14], > 52 µM (inactive); in [15], 5.65 µM (active). The EC50 in assay [2] is 5.06 µM (active); in assay [5] it was 3.68 µM (active).

`Cc1n[nH]c(O)c1C(c1ccccc1[N+](=O)[O-])C(C#N)C#N` (stereo not given): the AC50 in [16] is 61.1 µM (active). Moreover, the EC50 at Protein RecA is 3.93 µM (active).

Regarding `Cc1ccc2cc(C#N)c(SCc3nnc(-c4ccccc4[N+](=O)[O-])o3)nc2c1`, the results for the EC50 in assay [8] and in assay [10] were 4.3 µM (active) and 3.33 µM (active), respectively.

`COc1cc2c(C(=O)N3CCN(c4ccccc4C)CC3)c(C)oc2cc1Br`: in assay [6], the CC50 is > 40 µM (active). Also, the EC50 in assay [17] was 4.4 µM (active); in the assay with Streptococcus, 36 µM (active); on Streptokinase A, 79.8 µM (active).

`Cc1ccccc1NC(=O)Cn1cnc2c1c(=O)n(C)c(=O)n2C`: the AC50 on Cytochrome P450 1A2 is 15.8 µM (inconclusive). At Estrogen receptor beta, the IC50 is > 50 µM (not active).

Consider `Sc1ncc(-c2ccccc2)n1-c1cccc(Cl)c1`, for which the AC50 in assay [18] was 11.7 µM (active); in assay [19], 16.1 µM (active); in assay [20] it was 17.1 µM (active); in [21] it was 21.3 µM (active).

In general, EC50 refers to the concentration that produces a half-maximal response. One may read the CC50 as the concentration that lowers cell viability or growth by half. Broadly, the AC50 is the concentration at which the activity in the assay is half-maximal.
